US20230133958A1, “COMPOUNDS USEFUL IN MODULATING EGFR AND PI3K” (Mekanistic Therapeutics LLC, priority 2021, published 2023)

Target: HER4 (Homo sapiens, UniProt Q15303)
Experiment: Z'-LYTE / Adapta biochemical kinase assay, HER4
Text: The Z′-LYTE® biochemical assay employs a fluorescence-based, coupled-enzyme format and is based on the differential sensitivity of phosphorylated and non-phosphorylated peptides to proteolytic cleavage. The peptide substrate is labeled with two fluorophores—one at each end—that make up a FRET pair. In the primary reaction, the kinase transfers the gamma-phosphate of ATP to a single tyrosine, serine or threonine residue in a synthetic FRET-peptide. In the secondary reaction, a site-specific protease recognizes and cleaves non-phosphorylated FRET-peptides. Phosphorylation of FRET-peptides suppresses cleavage by the Development Reagent. […] A ratiometric method, which calculates the ratio (the Emission Ratio) of donor emission to acceptor emission after excitation of the donor fluorophore at 400 nm, is used to quantitate reaction progress.
A significant benefit of this ratiometric method for quantitating reaction progress is the elimination of well-to-well variations in FRET-peptide concentration and signal intensities. […]
Both cleaved and uncleaved FRET-peptides contribute to the fluorescence signals and therefore to the Emission Ratio. The extent of phosphorylation of the FRET-peptide can be calculated from the Emission Ratio. […]

Sequence of HER4 (Q15303 26-1308): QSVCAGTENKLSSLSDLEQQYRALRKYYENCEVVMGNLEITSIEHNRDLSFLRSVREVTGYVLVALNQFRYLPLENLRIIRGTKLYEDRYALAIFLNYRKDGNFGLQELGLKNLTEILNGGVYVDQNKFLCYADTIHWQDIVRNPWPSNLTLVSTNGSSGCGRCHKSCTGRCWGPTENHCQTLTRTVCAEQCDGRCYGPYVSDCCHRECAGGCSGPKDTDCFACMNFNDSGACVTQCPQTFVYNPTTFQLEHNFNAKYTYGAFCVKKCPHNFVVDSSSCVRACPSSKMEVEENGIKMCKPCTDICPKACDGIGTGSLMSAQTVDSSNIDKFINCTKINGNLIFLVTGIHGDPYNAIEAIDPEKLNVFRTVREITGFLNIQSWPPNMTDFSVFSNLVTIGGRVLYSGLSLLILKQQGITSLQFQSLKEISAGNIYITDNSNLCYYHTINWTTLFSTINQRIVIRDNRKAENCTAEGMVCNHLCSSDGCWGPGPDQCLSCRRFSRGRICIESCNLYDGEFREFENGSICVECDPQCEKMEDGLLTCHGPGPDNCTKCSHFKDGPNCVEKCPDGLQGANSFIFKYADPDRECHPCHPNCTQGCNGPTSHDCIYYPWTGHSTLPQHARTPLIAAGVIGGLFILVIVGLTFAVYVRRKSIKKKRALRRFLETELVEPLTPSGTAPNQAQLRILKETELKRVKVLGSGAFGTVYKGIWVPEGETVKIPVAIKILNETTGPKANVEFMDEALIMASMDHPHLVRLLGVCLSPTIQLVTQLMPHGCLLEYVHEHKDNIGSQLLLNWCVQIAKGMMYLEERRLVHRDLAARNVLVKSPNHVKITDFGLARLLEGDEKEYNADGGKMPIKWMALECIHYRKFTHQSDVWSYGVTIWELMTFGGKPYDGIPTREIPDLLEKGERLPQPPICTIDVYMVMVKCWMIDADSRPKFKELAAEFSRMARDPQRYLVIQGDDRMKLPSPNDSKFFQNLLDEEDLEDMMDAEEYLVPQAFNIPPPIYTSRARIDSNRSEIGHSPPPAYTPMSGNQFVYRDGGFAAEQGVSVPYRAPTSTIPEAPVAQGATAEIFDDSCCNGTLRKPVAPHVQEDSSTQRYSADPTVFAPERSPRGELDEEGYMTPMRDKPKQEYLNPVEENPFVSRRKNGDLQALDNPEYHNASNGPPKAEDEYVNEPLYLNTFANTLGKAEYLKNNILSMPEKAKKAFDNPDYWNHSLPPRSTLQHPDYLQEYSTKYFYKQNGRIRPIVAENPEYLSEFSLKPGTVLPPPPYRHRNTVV

## CS(=O)(=O)Nc1cc(-c2ccc3ncnc(Nc4cccc(Cl)c4F)c3c2)cnc1Cl [Compound 6, N-[2-chloro-5-[4-(3-chloro-2-fluoro-anilino)quinazolin-6-yl]-3-pyridyl] methanesulfonamide]
  IC50: > 200 nM
